Tested on: Pu22T14T23 (DNA, G4, none (G-to-T mutations at positions 14 and 23)) TGAGGGTGGGTAGGGTGGGTAA
Experiment: CD melting at 262 nm
Conditions: K+ (20 mM KCl); 5 mM phosphate pH 7.0; 1 µM DNA, 3 µM ligand; Tm 77.4 to 80.6

Structure (SMILES) | ΔTm
CN(C)CCNC(=O)c1cccn2c(=O)c3cc4ccccc4cc3nc12 | +3.2 °C
CN(C)CCNC(=O)c1cccn2c(=O)c3sc4ccccc4c3nc12 | +3.2 °C
